No end group written: not given here.
Assays:
[1] = test system: NLRP3 inflammasome in J774A.1 macrophages; test: NLRP3 inflammasome activation (IL-1β ELISA, caspase-1 Western blot); assay type: cell-based
Experimental: The expression levels of IL-1β, IL-6 and TNF-α in the conditional medium, sera and lavage fluids were measured by ELISA as described in detail previously.
(§1) The protein expression levels of iNOS, COX-2, ERK1/2, JNK1/2, p38, IκB-α, PKC, caspase-1 and the phosphorylation levels of ERK1/2, JNK1/2, p38, PKC-α, PKC-δ, IκB-α were determined by Western blotting as described in detail previously.
Fig 4 Effects of GW-A2 on NLRP3 inflammasome activation. (A and B) J774A.1 macrophages were incubated for 30 min with or without 2 μM of GW-A2, for 5.5 h with or without 0.1 μg/ml of E. coli LPS, and then for 30 min with or without 5 mM of ATP (A) or 10 μM of nigericin (B). The levels of IL-1β in the culture medium and activated caspase-1 (p10) in the cells were measured by ELISA and Western blotting, respectively. (C—F) J774A.1 macrophages were incubated for 5.5 h with 0.1 μg/ml of E. coli LPS, for 30 min with or without 2 μM of GW-A2, and then for 30 min with or without 5 mM of ATP (C and E), 10 μM of nigericin (D) or 100 μg/ml of MSU (F). The levels of IL-1β and TNF-α in the culture medium and activated caspase-1 (p10) in the cells were measured by ELISA and Western blotting, respectively. The data are expressed as the mean ± SD of three independent experiments. The Western blotting results shown are a representative experiment of three independent experiments. *, ** and *** indicate significant differences, representing p < 0.05, p < 0.01 and p < 0.001, respectively compared to stimulation alone.

[2] = test system: iNOS and COX-2 in E. coli-LPS-activated RAW 264.7 macrophages; test: iNOS and COX-2 expression (Western blot, quantitative real-time PCR); assay type: cell-based, mouse
Experimental: as §1
RAW 264.7 (2 × 10^6 in 2 ml of medium) were seeded in 6-cm dishes and then treated with or without LPS (0.1 μg/ml) in the absence or presence of AMP for 6 h. Total RNA was extracted from the treated cells by TRIzol reagent (Gibco, Grand Island, NY, USA) and the cDNA was prepared as described in detail previously. The mRNA expression levels of iNOS and COX-2 were measured by quantitative real-time PCR using the StepOne real-time PCR system (Applied Biosystems, Foster City, CA, USA). The primers used were: for mouse iNOS, forward 5- […]-3 and reverse 5-TGAACGAGGAGGGTGGTG-3; for mouse COX-2, forward 5-[…]-3 and reverse 5-[…]-3. The gene expression data are presented as the relative expression (LPS group as 100%) normalized to that of glyceraldehyde-3-phosphate dehydrogenase (GAPDH).

[3] = test system: LPS-induced NO generation in RAW264.7 cells; test: NO inhibitory assay (Griess reaction), LPS-activated RAW 264.7; assay type: cell-based, mouse
Experimental: (§2) RAW 264.7 cells (2 × 10^5 in 0.5 ml of medium) were seeded in 24-well plates and then incubated with or without LPS (0.1 μg/ml) in the absence or presence of AMP for 24 h. The effects of AMP on NO production were measured indirectly by analyzing nitrite levels using the Griess reaction as described in detail previously.

[4] = test system: PGN-, Pam3CSK4- and CPS-activated RAW 264.7 macrophages; test: NO generation induced by other bacterial components in RAW 264.7 (Griess reaction); assay type: cell-based, mouse; conditions: 24 h, Fig 1B
Experimental: as §2
Fig 1 Effects of GW-A2 on the expression levels of inflammatory mediators. (A) RAW 264.7 macrophages were incubated for 30 min with or without GW-A2 or scrambled GW-A2, followed by incubation with or without 0.1 μg/ml of E. coli LPS or Salmonella LPS for 24 h. The levels of NO in the culture medium were measured by the Griess reaction. (B) RAW 264.7 macrophages were incubated for 30 min with or without GW-A2, followed by incubation with or without peptidoglycan (20 μg/ml), Pam3CSK4 (0.2 μg/ml) or capsular polysaccharide (3 μg/ml) for 24 h. The levels of NO in the culture medium were measured by the Griess reaction. (C) RAW 264.7 macrophages were incubated for 30 min with or without GW-A2, followed by incubation with or without 0.1 μg/ml of E. coli LPS for 24 h. The levels of iNOS and COX-2 were assessed by Western blotting and the histograms represent the expression levels compared to the LPS alone group obtained in three different experiments. (D) RAW 264.7 macrophages were incubated for 30 min with or without GW-A2, followed by incubation with or without 0.1 μg/ml of E. coli LPS for 6 h. The mRNA levels of iNOS and COX-2 were assessed by quantitative real-time PCR. (E and F) RAW 264.7 macrophages (E) and human THP-1 macrophages (F) were incubated for 30 min with or without GW-A2, followed by incubation with or without 0.1 μg/ml of E. coli LPS for 24 h. The levels of TNF-α and IL-6 were assayed by ELISA. […] The cell proliferation was measured by AlamarBlue® assay. The data are expressed as the mean ± SD of three independent experiments. *, ** and *** indicate significant differences, representing p < 0.05, p < 0.01 and p < 0.001, respectively compared to stimulation alone. # indicates significant differences, representing p < 0.05 compared to 2 μM of GW-A2 group.

[5] = test system: NF-κB activity in RAW-Blue cells; test: NF-κB reporter assay; assay type: cell-based; conditions: E. coli LPS 0.1 μg/ml 24 h, QUANTI-Blue, Fig 2D
Experimental: RAW-Blue™ cells (2 × 10^5 in 0.5 ml of medium) were seeded in 24-well plates and then incubated with LPS (0.1 μg/ml) in the presence or absence of AMPs for 24 h. The NF-κB activity was assayed by QUANTI-Blue™ (rep-qb1, InvivoGen) as described in detail previously.

[6] = Western blot, E. coli LPS 0.1 μg/ml 24 h, Fig 1C
[7] = quantitative real-time PCR, E. coli LPS 0.1 μg/ml 6 h, Fig 1D

GAKYAKIIYNYLKKIANALW [GW-A2]
IL-1β secretion and caspase-1 activation induced by LPS+nigericin ([1]; 2 μM GW-A2 30 min before LPS 5.5 h, then 10 μM nigericin 30 min, Fig 4B): significantly inhibited | IL-1β secretion and caspase-1 activation induced by LPS+ATP ([1]; 2 μM GW-A2 30 min before LPS 5.5 h, then 5 mM ATP 30 min, Fig 4A): significantly inhibited | Nigericin-induced IL-1β secretion and caspase-1 activation in LPS-primed macrophages ([1]; LPS 5.5 h, then 2 μM GW-A2 30 min, then 10 μM nigericin, Fig 4D): no significant effect | MSU-induced IL-1β secretion in LPS-primed macrophages ([1]; LPS 5.5 h, then 2 μM GW-A2 30 min, then 100 μg/ml MSU, Fig 4F): not able to inhibit | ATP-induced IL-1β secretion and caspase-1 activation in LPS-primed macrophages ([1]; LPS 5.5 h, then 2 μM GW-A2 30 min, then 5 mM ATP, Fig 4C): inhibited | TNF-α secretion in LPS-primed macrophages ([1]; LPS 5.5 h, then 2 μM GW-A2 30 min, then 5 mM ATP, Fig 4E): did not decrease | COX-2 protein expression level [2, 6]: inhibited | iNOS protein expression level [2, 6]: inhibited | Inhibitory activity on COX-2 protein expression, 4 μM compared to 2 μM ([2]; Western blot, 4 μM of GW-A2 compared to 2 μM): lower inhibitory activity | COX-2 mRNA expression level [2, 7]: inhibited | iNOS mRNA expression level [2, 7]: inhibited | NO generation, GW-A2 added 0–8 h post LPS stimulation (therapeutic) ([3]; 2 μM GW-A2, Fig 3B): significantly inhibited | NO generation, GW-A2 added 16 h after LPS stimulation ([3]; 2 μM GW-A2, Fig 3B): no effect | NO generation induced by E. coli-LPS ([3]; RAW 264.7, 30 min peptide then 0.1 μg/ml E. coli LPS 24 h, Griess, Fig 1A): inhibited by GW-A2 in a dose-dependent manner | NO generation induced by Salmonella-LPS ([3]; RAW 264.7, 30 min peptide then 0.1 μg/ml Salmonella LPS 24 h, Griess, Fig 1A): inhibited by GW-A2 in a dose-dependent manner | LPS-induced NO generation, GW-A2 added with LPS or 24 h before LPS (prophylactic) ([3]; pre-incubation 0–24 h, then LPS 24 h, Fig 3A): significantly reduce | LPS-induced NO generation, GW-A2 washed off before LPS stimulation ([3]; pre-incubation 1, 3, 6, 12 or 24 h, supernatant replaced, LPS 24 h, Fig 3C): not able to inhibit | NO inhibitory activity in Pam3CSK4-activated macrophages ([4]; Pam3CSK4 0.2 μg/ml): much lower than that in LPS-activated macrophages | NO inhibitory activity in CPS-activated macrophages ([4]; capsular polysaccharide 3 μg/ml): much lower than that in LPS-activated macrophages | NO inhibitory activity in PGN-activated macrophages ([4]; peptidoglycan 20 μg/ml): much lower than that in LPS-activated macrophages | NF-κB transcriptional activity [5]: reduced by GW-A2 in a dose-dependent manner

Reference: PMC5531531, “A synthetic cationic antimicrobial peptide inhibits inflammatory response and the NLRP3 inflammasome by neutralizing LPS and ATP” (PLoS ONE, 2017)
